Source: patent EP4717275A1, “ANTI-LUNG CANCER COMBINED DRUG AND USE THEREOF” (Gunagdong Yinzhu Pharmaceutical Technology Co., Ltd, priority 2023, dated 2024)
pIC50: −log10 of the molar value. Where “and” joins values, the source holds several entries; their conditions need not be identical. Identical values can stand only once. Like-named read-outs stand apart in the source and are kept apart here. Marks after values point to notes of the source that are not given here.

Experiments:
[1] = Animal body weight, fatality and toxicity observation in the NCI-H2228 xenograft study; type: in vivo, BALB/c Nude mice
Source text: (§1) BALB/c Nude mice, female, 8-10 weeks old, 18-20g. The variation of the body weight is ±20% around average body weight. 80 mice were inoculated and 60 mice were grouped.
(§2) The grouping day was designated as Day 0, and administration commenced according to animal body weight.
(§3) The same as the therapeutic effect evaluation experiments for Examples 1-2 and Comparative Examples 1-3.

NCI-H2228 cell = assay: CCK8 proliferation assay with combination index analysis; type: cell-based, human; conditions: Alectinib alone
Experimental: CCK8 method was used to evaluate the effect of the drugs towards proliferation of lung cancer cell line (NCI-H2228 cell). The cellular viability with different concentration of drug was assayed and the 50% inhibitory concentration was calculated.
Emerge NCI-H2228 cells (purchased from American Type Culture Collection (ATCC, Manassas, VA, USA)) from liquid nitrogen and thaw in a 37°C water bath. After thawing, culture cells in 1640 medium.
When cell density reached 90% confluence in culture medium, cells were digested with 0.25% trypsin and resuspended. After cell growth stabilized, cells in the logarithmic growth phase were harvested and counted using a cell counter and it was ensured that viability exceeded 85% for all cell lines.
Adjust cell concentration by diluting with culture medium. Add 100 µL of cell suspension to a 96-well plate to achieve a density of 3000 cells/well. Add 100 µL of PBS buffer to the wells around the cell-seeded wells.
Incubate the 96-well plate at 37°C, 5% CO2, and 95% humidity overnight.
Remove the cell culture plate from the incubator, aspirate the culture medium, and add the prepared drug-containing medium. Incubate at 37°C, 5% CO2, and 95% humidity for 72 hours.
Add 10 µL of CCK-8 solution to each well of the 96-well plate. Incubate the plate in the cell culture incubator for 1.5 hours. Measure the absorbance at 450 nm using a microplate reader.
Analyze data using GraphPad Prism 5.0 software. Fit the data using nonlinear S-curve regression to generate a dose-response curve and calculate the IC50 value. [formula]
The analysis of the combination index of the compound was performed using the median effect principle. The formula for the combination index of two compounds is: CI = (D)1/(Dx)1 + (D)2/(Dx)2 [formula]
Where: • (D)1---- The concentration of Compound 1 when compound 1 was used with another compound and the effect X was generated; • (D)2---- The concentration of Compound 2 when compound 2 was used with another compound and the effect X was generated; • (Dx)1---- The concentration of Compound 1 when compound 1 was used alone and the effect X was generated; • (Dx)2---- The concentration of Compound 2 when compound 2 was used alone and the effect X was generated.
The CI value enables quantitative assessment of the nature and strength of interactions between different compounds (Table 2). Interaction strength is measured using the weighted average CI (CIwt), calculated by the formula: CIwt = (CI50+2CI75+3CI90+4CI95)/10 [formula]
Where: • CI50 ---- CI value at EC50 (concentration achieving 50% effect) • CI75, CI90, and CI95 follow the same principle, representing the CI values at EC75, EC90, and EC95, respectively.
Evaluation of the combination effect: CI value is used to evaluate the combination effect, and the judgment method is shown in Table 7. Table 7 Judgment criteria of the results

[2] = test system: human lung cancer NCI-H2228 xenografts; assay: Therapeutic effect in vivo on NCI-H2228 xenografts in nude mice; set-up: species or system BALB/c Nude mice; conditions: PO
Experimental: as §1
Table 9 Experimental design of therapeutic effect of the drugs in vivo
NCI-H2228 cells were cultured in RPMI 1640 medium supplemented with 10% FBS and maintained in a 37°C, 5% CO2 humidified incubator.
Log-phase NCI-H2228 cells were harvested, resuspended in RPMI 1640 basal medium containing 50% Matrigel, and adjusted to a concentration of 2 × 10^7 cells/mL. Under aseptic conditions, 0.1 mL of the cell suspension was injected subcutaneously into the right flank of mice at a concentration of 2 × 10^6 cells/0.1 mL/mouse.
When the mean tumor volume reached approximately 150 mm^3, animals were randomly grouped based on tumor volume, ensuring inter-group tumor volume variation was less than 10% of the mean.
as §2, §3

[3] = test system: human lung cancer NCI-H1975 xenografts; assay: Therapeutic effect in vivo on NCI-H1975 xenografts in nude mice; set-up: species or system BALB/c Nude mice; conditions: PO
Experimental: BALB/c Nude mice, female, 8-10 weeks old, 18-20g. […] Table 2 Experimental design of therapeutic effect of the drugs in vivo […] NCI-H1975 cells were cultured in RPMI 1640 medium supplemented with 10% FBS and maintained in a 37°C, 5% CO2 humidified incubator. Log-phase NCI-H1975 cells were harvested, resuspended in RPMI 1640 basal medium containing 50% Matrigel, and adjusted to a concentration of 2 × 10^7 cells/mL. Under aseptic conditions, 0.1 mL of the cell suspension was injected subcutaneously into the right flank of mice at a concentration of 2 × 10^6 cells/0.1 mL/mouse. […] The grouping day was designated as Day 0, and administration commenced according to animal body weight. […] Animal body weight and tumor volume were measured twice weekly throughout the experiment. Tumor length and width were measured using a digital caliper, with tumor volume estimated from these measurements. After the final weighing on Day 21, remaining animals were euthanized with CO2. Tumors were weighed, photographed, and the experiment concluded. […] Tumor growth inhibition rate (%TGITV) is calculated as: […] Relative Tumor Volume (RTV) is calculated as Vt/V0, where V0 is the tumor volume at grouping and Vt is the tumor volume at each measurement. Relative Tumor Growth Rate (%T/CRTV) is calculated as TRTV/CRTV × 100%, where TRTV is the RTV of the treatment group and CRTV is the RTV of the negative control group. Tumor growth inhibition rate (%TGITW) is calculated as: ([…] × 100%, where TWc is the average tumor weight in the negative control group and TWT is the average tumor weight in the treatment group. […] Drug-related animal mortality exceeding 20% indicates severe toxicity at that dose. All experimental data in this study are expressed as Mean ± SEM. The evaluation of the combination index (CI) of drugs relies on the following equation: […]), wherein E(A+B) is the inhibition rate of combination drug, EA and EB is the inhibition rate of drug A and drug B respectively. E(A+B) in the equation represents 'measured synergistic effect' and (EA+EB-EA×EB) is 'expected synergistic effect'. CI=0.85-1.15 indicates a mere addition of the effect of two drugs, >1.15 indicates enhancement (or synergy), and <0.85 indicates antagonism. • Combination index of tumor growth inhibition: CAI, 40mg/kg + AZD9291, 1mg/kg: 1.27; […] CAI, 40mg/kg + AZD9291, 1mg/kg: 1.20; […]

[4] = type: in vivo
Experimental: as §1, §2
Animal body weight and tumor volume were measured twice weekly throughout the experiment. Tumor length and width were measured using a digital caliper, with tumor volume estimated from these measurements.
Clinical observations were recorded daily to assess overall health status, weight abnormalities, behavioral changes, and other treatment-related adverse reactions.
In accordance with animal welfare regulations, animals meeting any of the following criteria during the study were removed from the experimental group and euthanized: 1. Body weight loss exceeding 20% compared to Day 0 (BWL ≥ 20%); 2. Severe adverse reactions such as blindness or paralysis; 3. Tumor volume exceeding 2000 mm^3; 4.
The animal body weight change rate (%BWC) is calculated as: (BWt - BW0) / BW0 × 100%, where BWt is the animal body weight at each measurement and BW0 is the animal body weight at grouping.
According to China's NMPA Technical Guidance Principles for Non-clinical Studies of Cytotoxic Antineoplastic Drugs (November 2006), %T/CRTV ≤ 40% and statistically significant P < 0.05 indicate efficacy. Drug-related animal mortality exceeding 20% indicates severe toxicity at that dose.
All experimental data in this study are expressed as Mean ± SEM.

[5] = %TGITV from tumor volume vs control, QD×21
[6] = %TGITW from tumor weight vs control, QD×21

## CCc1cc2c(cc1N1CCC(N3CCOCC3)CC1)C(C)(C)c1[nH]c3cc(C#N)ccc3c1C2=O [Alectinib]
[1]; dead/total animals at Day 21, NCI-H2228 study, PO, QD×21
  Fatality: 0/10 (Day 21)
[1]; mouse, in vivo
  inhibitory effect on animal weight gain: slight inhibition effect on animal body weight
[1]; mouse, in vivo, po
  Average body weight (g, Mean ± SEM) Day 0: 22.48 ± 0.33 g
  Average body weight (g, Mean ± SEM) Day 21: 22.20 ± 0.41 g
  Body weight change Day 21 vs Day 0 (g, in brackets): -0.28 g
  Body weight change rate Day 21 vs Day 0: -1.13%
NCI-H2228 cell; single plates 1-3, 72 hours, read-out: IC50 (Alectinib)
  pIC50: 6.33 and 6.26
NCI-H2228 cell; Homo sapiens, NCI-H2228, 72 h, average of 3 plates, read-out: IC50 (Alectinib)
  pIC50: 6.28
NCI-H2228 cell; Homo sapiens, NCI-H2228, 72 h, single plates 1-3, read-out: IC50 (Alectinib)
  pIC50: 6.25
[2]; %T/CRTV, QD×21
  Relative tumor proliferation rate(%) Day 21: 59.77%
[2]; [5]
  Tumor growth inhibition rate(%) Day 21: 41.23%
[2]; [6]
  Tumor inhibition rate(%) Day 21: 49.14%
[2]; QD×21, dose per group
  Tumor volume (mm^3,Mean±SEM) Day 21: 863.95± 98.37* mm^3
[2]; QD×21, listed as Comparative Example 4
  Tumor weight (g,Mean±SEM) Day 21: 0.444 ± 0.049 g
[2]; RTV = Vt/V0, Mean ± SEM, QD×21
  Relative tumor volume Day 21: 5.23± 0.32

## C=CC(=O)Nc1cc(Nc2nccc(-c3cn(C)c4ccccc34)n2)c(OC)cc1N(C)CCN(C)C [Comparative Example 1, osimertinib]
[3]; %T/CRTV, QD×21
  Relative tumor proliferation rate(%) Day 21: 81.08%
[3]; [5]
  Tumor growth inhibition rate(%) Day 21: 21.02%
[3]; [6]
  Tumor inhibition rate(%) Day 21: 14.73%
[3]; QD×21
  Tumor weight (g,Mean±SEM) Day 21: 1.401 ± 0.212 g
[3]; QD×21, dose per group
  Tumor volume (mm^3,Mean±SEM) Day 21: 1394.40 ±181.52 mm^3
[3]; RTV = Vt/V0, Mean ± SEM, QD×21
  Relative tumor volume Day 21: 8.74 ± 0.73
[4]; dead/total animals at Day 21, NCI-H1975 study, PO, QD×21
  Fatality: 0/10 (Day 21)
[4]; mouse, in vivo, po
  Average body weight (g, Mean ± SEM) Day 0: 19.47 ± 0.28 g
  Average body weight (g, Mean ± SEM) Day 21: 21.46 ± 0.42 g
  Body weight change Day 21 vs Day 0 (g, in brackets): 1.99 g
  Body weight change rate Day 21 vs Day 0: 10.15%
